Values quoted from earlier work in the CATMoS acute toxicity set (Mansouri et al. 2021).
Values joined by “and” are separate entries in the source; they are usually repeats but may differ in a detail not shown here. Equal entries are not always repeated.

Test: rat acute oral toxicity
Details: in vivo

Row | SMILES | LD50
1 | O=C(O)C(F)(F)C(F)(F)F | 1770 mg/kg
2 | CNC(=S)NNc1cc(C(F)(F)F)cc(C(F)(F)F)c1 | 414 mg/kg
3 | CCCCCCC(C)I (stereo unspecified) | 8200 mg/kg
4 | CN(CC#N)N=O | 45 mg/kg
5 | Cc1ccccc1-n1c(C)nc2ccccc2c1=O | 185 mg/kg
6 | CCCCCCCCc1ccc(C(=O)CCN2CCCCC2)cc1 | 417 mg/kg
7 | ClCC(Cl)(Cl)C(Cl)Cl | 819 mg/kg
8 | CCC(=O)CC | 2140 mg/kg
9 | C1CN1c1nc(N2CC2)nc(N2CC2)n1 | 13 mg/kg
10 | Clc1sc(Cl)c(Cl)c1Cl | 70 mg/kg
11 | COc1ccc(S(=O)(=O)Nc2nnc(CC(C)C)s2)cc1 | 534 mg/kg
12 | COC(CC(C)=O)OC | 6200 mg/kg
13 | CCOP(=S)(OCC)SCn1ncccc1=O | 2.5 mg/kg
14 | ClC1(Cl)C2(Cl)C3C4(Cl)C1(Cl)C1(Cl)C4(Cl)C(Cl)(Cl)C3(Cl)C21Cl (stereo unspecified) | 200 mg/kg
15 | CC(=O)OC(C(=O)NC(N)=O)c1ccccc1 (stereo unspecified) | 2100 mg/kg
16 | O=C(O)C1CCc2cc(C3CCCCC3)c(Cl)cc21 (stereo unspecified) | 41 mg/kg and 35 mg/kg
17 | CCCCNCCCCCCN | 536 mg/kg
18 | CC(C)CCCCCc1ccc(O)cc1 | 2150 mg/kg
19 | CCC(Cl)Cl | 6500 mg/kg

Row | SMILES | LD50
20 | OC(c1ccccc1)(c1ccccc1)C1CCCCN1 (stereo unspecified) | 180 mg/kg
21 | C1CCCC1 | 11400 mg/kg
22 | O=C(O)c1cc(-c2ccc(F)cc2F)ccc1O | 392 mg/kg
23 | O=[N+]([O-])c1ccc(Cl)c2nc(C(F)(F)F)[nH]c12 | 11.1 mg/kg
24 | C#CCOC(=O)CCCCC(=O)OCC#C | 200 mg/kg
25 | CCN(CC(=O)O)S(=O)(=O)C(F)(F)C(F)(F)C(F)(F)C(F)(F)C(F)(F)C(F)(F)C(F)(F)C(F)(F)F | 619 mg/kg
26 | C=CCN(CC=C)c1ccc(OC(=O)NC)cc1 | 86.8 mg/kg
27 | CCCOP(=S)(OCCC)Oc1ccc(S(C)=O)cc1 (stereo unspecified) | 50 mg/kg
28 | CCN1CCOCC1 | 1780 mg/kg
29 | COP(=S)(OC)SC1OCCOC1SP(=S)(OC)OC (stereo unspecified) | 350 mg/kg
30 | COC(=O)c1ccc(I)cc1S(=O)(=O)NC(=O)Nc1nc(C)nc(OC)n1 | 2680 mg/kg
31 | Cc1cccc(C)c1CCNC(N)=O | 1500 mg/kg
32 | O=C(NN1CCCC1)NS(=O)(=O)c1ccc(Cl)cc1 | 4100 mg/kg
33 | COC(=O)Nc1nc2ccccc2n1C(=O)NCCCCCC#N | 2500 mg/kg
34 | CCOP(=S)(OCC)SCSc1ccc(Cl)c(Cl)c1 | 89 mg/kg
35 | O=C(Cl)CCl | 208 mg/kg
36 | CC(C)NCC(O)c1ccccc1Cl (stereo unspecified) | 450 mg/kg and 445 mg/kg
37 | CC(C)(C)OOC(=O)C(C)(C)C | 4300 mg/kg
38 | N#Cc1ccc([N+](=O)[O-])cc1 | 30 mg/kg

Row | SMILES | LD50
39 | COP(=S)(OC)Oc1cnc2ccccc2n1 | 900 mg/kg
40 | CC(C(=O)O)c1ccc(-c2ccccc2F)cc1 (stereo unspecified) | 337 mg/kg
41 | NCC(=O)O | 7930 mg/kg and 3340 mg/kg
42 | CCOC(=S)SCC#N | 210 mg/kg
43 | CC(C)(C)N=NC(C)(C)O | 329 mg/kg
44 | CC1=C2C(=O)O[C@@H](c3ccoc3)[C@]2(C)CCC1 | 274 mg/kg
45 | NC(=O)c1ccc([N+](=O)[O-])cc1 | 476 mg/kg
46 | NN=C(N)N | 500 mg/kg
47 | CN1C(=O)CC(=O)N(c2ccccc2)c2cc(Cl)ccc21 | 6000 mg/kg
48 | NC(CCC(=O)O)C(=O)O (racemic) | 10000 mg/kg
49 | O=P1(NCCCl)OCCCN1CCCl (stereo unspecified) | 143 mg/kg
50 | O=C(O)CCC(=O)OCC1COC(C(Cl)(Cl)Cl)O1 (stereo unspecified) | 3400 mg/kg
51 | CCOCCc1ccc(OCCN=c2[nH]cnc(CC)c2Cl)c(C)c1C | 115 mg/kg
52 | CN=C1C=CC(=C(c2ccc(N(C)C)cc2)c2ccc(N(C)C)cc2)C=C1 | 413 mg/kg
53 | CC(CCl)[N+](=O)[O-] (stereo unspecified) | 197 mg/kg
54 | O=C1CSC2(CCN(CCCN3c4ccccc4Sc4ccc(Cl)cc43)CC2)N1 | 3800 mg/kg
55 | CCCCC(CC)OCCOCCO (stereo unspecified) | 2940 mg/kg
56 | C#CCOC(C)=O | 250 mg/kg
